Reference: PubChem BioAssay AID248 (DTP/NCI, 2004)
Inconclusive results and toxic doses are left out. Cut-off read from the data, not from the text of the source: active = T/C of 150% or more; inactive = T/C below 125%.

System: L1210 leukemia ip in BDF1 mice, survival T/C
Experiment: NCI In Vivo Anticancer Drug Screen. Data for tumor model L1210 Leukemia (intraperitoneal) in B6D2F1 (BDF1) mice
Details: endpoint: mean survival time, higher = longer survival
Procedure, shortened: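 Antitumor effect is assessed in tumor-bearing animals. Survival in the compound arm is compared with a vehicle-dosed control arm and expressed as their quotient.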

Measured: T/C

CC(C)[C@](O)(C(=O)OCC1=CC[N+]2([O-])CC[C@@H](O)[C@@H]12)[C@H](C)O (stereo partly specified)
inactive: dose: 6.2 mg/kg/injection, schedule: Q01DX009 (ip), vehicle: water 96 % of control | dose: 8.0 mg/kg/injection, schedule: Q03HX024 (ip), vehicle: water 91 % of control | dose: 12.5 mg/kg/injection, schedule: Q01DX009 (ip), vehicle: water 96 % of control | dose: 16.0 mg/kg/injection, schedule: Q03HX008 (ip), vehicle: water 101 % of control | dose: 16.0 mg/kg/injection, schedule: Q03HX016 (ip), vehicle: water 101 % of control | dose: 16.0 mg/kg/injection, schedule: Q03HX024 (ip), vehicle: water 96 % of control | dose: 25.0 mg/kg/injection, schedule: Q01DX009 (ip), vehicle: saline 90 % of control | dose: 25.0 mg/kg/injection, schedule: Q01DX009 (ip), vehicle: water 98 % of control | dose: 32.0 mg/kg/injection, schedule: Q03HX008 (ip), vehicle: water 99 % of control | dose: 32.0 mg/kg/injection, schedule: Q03HX016 (ip), vehicle: water 94 % of control | dose: 32.0 mg/kg/injection, schedule: Q03HX024 (ip), vehicle: water 95 % of control | dose: 50.0 mg/kg/injection, schedule: Q01DX009 (ip), vehicle: saline 93 % of control | dose: 50.0 mg/kg/injection, schedule: Q01DX009 (ip), vehicle: water 123 % of control | dose: 64.0 mg/kg/injection, schedule: Q01DX009 (ip), vehicle: saline 99 % of control | dose: 64.0 mg/kg/injection, schedule: Q01DX009 (ip), vehicle: water 97 % of control | dose: 64.0 mg/kg/injection, schedule: Q03HX008 (ip), vehicle: water 97 % of control | dose: 64.0 mg/kg/injection, schedule: Q03HX016 (ip), vehicle: water 94 % of control | dose: 64.0 mg/kg/injection, schedule: Q03HX024 (ip), vehicle: water 99 % of control | dose: 64.0 mg/kg/injection, schedule: Q04DX003 (ip), vehicle: water 97 % of control | dose: 100.0 mg/kg/injection, schedule: Q01DX009 (ip), vehicle: saline 96 % of control | dose: 100.0 mg/kg/injection, schedule: Q01DX009 (ip), vehicle: water 110 % of control | dose: 100.0 mg/kg/injection, schedule: Q04DX002 (ip), vehicle: saline 104 % of control | dose: 128.0 mg/kg/injection, schedule: Q01DX001 (ip), vehicle: water 98 % of control | dose: 128.0 mg/kg/injection, schedule: Q01DX009 (ip), vehicle: saline 103 % of control | dose: 128.0 mg/kg/injection, schedule: Q01DX009 (ip), vehicle: water 108 % of control | dose: 128.0 mg/kg/injection, schedule: Q01DX009 (sc), vehicle: water 95 % of control | dose: 128.0 mg/kg/injection, schedule: Q03HX008 (ip), vehicle: water 101 % of control | dose: 128.0 mg/kg/injection, schedule: Q03HX016 (ip), vehicle: water 99 % of control | dose: 128.0 mg/kg/injection, schedule: Q03HX024 (ip), vehicle: water 110 % of control | dose: 128.0 mg/kg/injection, schedule: Q04DX003 (ip), vehicle: water 105 % of control | dose: 128.0 mg/kg/injection, schedule: Q08DX002 (ip), vehicle: water 95 % of control | dose: 200.0 mg/kg/injection, schedule: Q01DX009 (ip), vehicle: water 117 % of control | dose: 200.0 mg/kg/injection, schedule: Q04DX002 (ip), vehicle: saline 123 % of control | dose: 256.0 mg/kg/injection, schedule: Q01DX001 (ip), vehicle: water 99 % of control | dose: 256.0 mg/kg/injection, schedule: Q01DX009 (ip), vehicle: saline 101 % of control | dose: 256.0 mg/kg/injection, schedule: Q01DX009 (ip), vehicle: water 117 % of control | dose: 256.0 mg/kg/injection, schedule: Q01DX009 (oral), vehicle: water 103 % of control | dose: 256.0 mg/kg/injection, schedule: Q01DX009 (sc), vehicle: water 97 % of control | dose: 256.0 mg/kg/injection, schedule: Q03HX008 (ip), vehicle: water 94 % of control | dose: 256.0 mg/kg/injection, schedule: Q04DX003 (ip), vehicle: water 100 % of control | dose: 256.0 mg/kg/injection, schedule: Q08DX002 (ip), vehicle: water 101 % of control | dose: 400.0 mg/kg/injection, schedule: Q01DX009 (ip), vehicle: saline 98 % of control | dose: 400.0 mg/kg/injection, schedule: Q04DX002 (ip), vehicle: saline 120 % of control | dose: 512.0 mg/kg/injection, schedule: Q01DX001 (ip), vehicle: water 101 % of control | dose: 512.0 mg/kg/injection, schedule: Q01DX009 (ip), vehicle: water 105 % of control | dose: 512.0 mg/kg/injection, schedule: Q01DX009 (oral), vehicle: water 94 % of control | dose: 512.0 mg/kg/injection, schedule: Q01DX009 (sc), vehicle: water 104 % of control | dose: 512.0 mg/kg/injection, schedule: Q04DX003 (ip), vehicle: water 100 % of control | dose: 512.0 mg/kg/injection, schedule: Q08DX002 (ip), vehicle: water 110 % of control | dose: 800.0 mg/kg/injection, schedule: Q01DX009 (ip), vehicle: saline 111 % of control | dose: 1024.0 mg/kg/injection, schedule: Q01DX001 (ip), vehicle: water 111 % of control | dose: 1024.0 mg/kg/injection, schedule: Q01DX009 (ip), vehicle: saline 104 % of control | dose: 1024.0 mg/kg/injection, schedule: Q01DX009 (oral), vehicle: water 108 % of control | dose: 1024.0 mg/kg/injection, schedule: Q04DX003 (ip), vehicle: water 119 % of control | dose: 1024.0 mg/kg/injection, schedule: Q08DX002 (ip), vehicle: water 117 % of control

Cn1c2ccccc2c2nnc(NCCCO)nc21
inactive: dose: 100.0 mg/kg/injection, schedule: Q04DX002 (ip), vehicle: saline with Tween-80 86 % of control | dose: 200.0 mg/kg/injection, schedule: Q04DX002 (ip), vehicle: saline with Tween-80 104 % of control | dose: 400.0 mg/kg/injection, schedule: Q04DX002 (ip), vehicle: saline with Tween-80 97 % of control

c1nc2c(o1)CCCC2
inactive: dose: 50.0 mg/kg/injection, schedule: Q04DX002 (ip), vehicle: carboxymethylcellulose (CMC) 98 % of control | dose: 50.0 mg/kg/injection, schedule: Q04DX002 (ip), vehicle: other 97 % of control | dose: 100.0 mg/kg/injection, schedule: Q04DX002 (ip), vehicle: carboxymethylcellulose (CMC) 98 % of control | dose: 100.0 mg/kg/injection, schedule: Q04DX002 (ip), vehicle: other 100 % of control | dose: 200.0 mg/kg/injection, schedule: Q04DX002 (ip), vehicle: carboxymethylcellulose (CMC) 95 % of control | dose: 200.0 mg/kg/injection, schedule: Q04DX002 (ip), vehicle: other 93 % of control

Cc1ccc2nc(C)ccc2c1
inactive: dose: 50.0 mg/kg/injection, schedule: Q01DX001 (ip), vehicle: Klucel (hydroxypropylcellulose) (HPC) 101 % of control | dose: 100.0 mg/kg/injection, schedule: Q01DX001 (ip), vehicle: Klucel (hydroxypropylcellulose) (HPC) 109 % of control | dose: 200.0 mg/kg/injection, schedule: Q01DX001 (ip), vehicle: Klucel (hydroxypropylcellulose) (HPC) 107 % of control

CCCCCCOP(=O)(N1CC1)N1CC1
inactive: dose: 0.62 mg/kg/injection, schedule: Q01DX001 (ip), vehicle: saline 102 % of control | dose: 1.25 mg/kg/injection, schedule: Q01DX001 (ip), vehicle: saline 100 % of control | dose: 2.5 mg/kg/injection, schedule: Q01DX001 (ip), vehicle: saline 103 % of control | dose: 5.0 mg/kg/injection, schedule: Q01DX001 (ip), vehicle: saline 103 % of control
active: dose: 10.0 mg/kg/injection, schedule: Q01DX001 (ip), vehicle: saline 152 % of control | dose: 20.0 mg/kg/injection, schedule: Q01DX001 (ip), vehicle: saline 201 % of control | dose: 40.0 mg/kg/injection, schedule: Q01DX001 (ip), vehicle: saline 287 % of control | dose: 75.0 mg/kg/injection, schedule: Q01DX001 (ip), vehicle: saline 267 % of control | dose: 150.0 mg/kg/injection, schedule: Q01DX001 (ip), vehicle: saline 247 % of control
